In US20230373972A1, “PIPERAZINE DERIVATIVE, PREPARATION METHOD THEREFOR AND USE THEREOF” (Zhejiang Hisun Pharmaceutical Co., Ltd., priority 2020, published 2023):

Key:
human plasma = test: In-vitro anticoagulation on human plasma (APTT kit, coagulation time); conditions: concentration of the compound when the coagulation time (APTT) was prolonged twice
[1] = Metabolic stability in dog liver microsomes; type: in vitro ADME
Protocol: (§1) The experiment was intended to study the metabolic stability of the compounds of the present invention in dog and mouse liver microsomes.
(§2) A test compound and the compound of Comparative Example 1 were incubated with dog and mouse liver microsomes (the Corning Company. USA) respectively, and a coenzyme NADPH was added to start the reaction. 135 μL of acetonitrile containing an internal standard (IS) was added to wells of a corresponding plate after 0, 5, 15, 30 and 45 minutes respectively to terminate the reaction. After protein precipitation, the solution was centrifuged at 5.594 rpm for 15 minutes, and a supernatant was taken. The supernatant was diluted with water by 1:1 (volume ratio) and then analyzed by a LC-MS/MS method. Ketanserin was used as an internal reference compound, and two copies of Ketanserin were incubated in parallel.
(§3) A peak area ratio of analyte/internal standard (Aanalyte/A1s) was obtained by an instrument, and a remaining percentage (% Control) was calculated by ratios of Aanalyte/A1s in a sample at a non-zero time point and a sample at a zero time point. Ln (% Control) was plotted and fitted linearly with the incubation time. A scavenging constant (k, min^−1) and a scavenging half-life (T1/2, min) of the tested compound were calculated by the following equation.

[2] = Metabolic stability in mouse liver microsomes; type: in vitro ADME
Protocol: as §1, §2, §3

[3] = Pharmacokinetics in cynomolgus macaque; type: in vivo; conditions: male, cynomolgus monkey, plasma, po, intragastric administration 15 mg/kg
Protocol: Taking a cynomolgus macaque as a tested animal, the cynomolgus macaque was administrated with the compound in Example 96 of the present invention by intragastric administration, and drug concentrations in plasma at different times were determined by a LC/MS/MS method to study pharmacokinetic characteristics of the compound of the present invention in the cynomolgus macaque.
Cynomolgus macaque, male, 4.6 kg to 5.7 kg, adult, purchased from Guangxi Fangcheng Gang Spring Biological Technology Development Corporation Ltd.
Preparation of drug administrated by intragastric administration: a proper amount of compound to be tested was added to a proper amount of DMAC: (30% Kolliphor HS 15): Saline=5%: 10%; 85% (v/v/v), and shaken in a vortex manner, so as to prepare a final solution with a concentration of 3 mg/mL.
Cynomolgus macaques were organized into one group, which was an intragastric administration group (3 cynomolgus macaques in single group).
Intragastric administration group: the drug was administrated by intragastric administration (according to a dosage of 15 mg/kg and a volume of 5 ml/kg) after fasting overnight, and food was taken 4 hours after administration.
Intragastric administration group: about 500 μL of blood was collected into an EDTA-K2 anticoagulant tube through a cephalic vein and a saphenous vein 0.25 hour, 0.5 hour, 1 hour, 2 hours, 4 hours, 8 hours and 24 hours after administration.
The blood sample was placed on wet ice first, and plasma was centrifugally separated within 15 minutes after sampling (centrifugation conditions: 2,000 g, 4° C., 5 minutes). The collected upper plasma was stored at −70° C. before analysis.
Contents of the compound to be tested in cynomolgus macaque plasma after intragastric administration were determined by LC-MS/MS.

Structure (SMILES): COCC[C@@H](C(=O)Nc1ccc2nn(C)cc2c1)N1CC(=O)N(c2cc(Cl)ccc2-n2cc(Cl)nn2)CC1=O [Example 96, (S)-2-(4-(5-chloro-2-(4-chloro-1H-1,2,3-triazol-1-yl)phenyl)-2,5-dioxopiperazin-1-yl)-4-methoxy-N-(2-methyl-2H-indazol-5-yl)butanamide]
- CT2 (human plasma): 5.3 µM
- half-life at 1 μM ([1]; dog liver microsomes 0.5 mg/mL, 1 μM compound, NADPH, read-out: Half-life period (T1/2 min) Dog): 15.3 h
- Half-life period and stability compared with Comparative Example 1 ([1]; dog liver microsomes, in words): longer half-life period and a higher stability
- half-life at 1 μM ([2]; mouse liver microsomes 0.5 mg/mL, 1 μM compound, NADPH, read-out: Half-life period (T1/2 min) Mouse): 5.53 h
- Half-life period and stability compared with Comparative Example 1 ([2]; mouse liver microsomes, in words): longer half-life period and a higher stability
- Cmax ([3]; read-out: Blood concentration Cmax): 834 ± 482 ng/mL
- AUC(0-t) ([3]; read-out: Curve area AUC0-t): 4210 ± 1240 ng·h/mL
- half-life ([3]; read-out: Half-life period T1/2(h) (converted)): 3.71 ± 0.42 h
